The values that follow come from patent US4621083A, “PAF-antagonistic diazepines” (Boehringer Ingelheim KG, priority 1984, dated 1986).

The structures appear in SMILES notation.

This assay concerns PAF-induced aggregation of human thrombocytes. The experiment in a line: Inhibition of PAF-induced blood platelet aggregation in vitro. The class given is cell-based. Conditions: Homo sapiens, read-out: PAF-Antag. IC50. The protocol: 1. Inhibition of blood platelet aggregation in vitro
The PAF-induced aggregation of human thrombocytes in vitro is used to determine PAF-antagonistic activity. To obtain thrombocyte-rich plasma (TRP), blood is taken from an uncongested vein using a plastic syringe containing 3.8% sodium citrate solution. The ratio of sodium citrate solution to blood is 1:9. After careful mixing the citrate blood is centrifuged for 20 minutes at 150 g (1200 rpm). The thrombocyte aggregation is measured using the method devised by Born and Cross (G. V. R. Born and M. J. Cross, J. Physiol. 168, 178 (1963)), by adding an aggregation initiator (PAF) to the TRP with constant stirring.
The test substance is added 2 to 3 minutes before aggregation is initiated in a volume of 10 ul. Either distilled water, ethanol and/or dimethylsulphoxide (each in suitable concentrations) can be used as solvent.
Control mixtures contain corresponding volumes of these solvents. After the initial absorption has been recorded (2 to 3 minutes) aggregation is induced with PAF (5×10^-8 M).
The maximum of the first aggregation wave is used to assess the effects of the substance. The PAF-induced maximum absorption rate (=maximum aggregation×100%) is tested at the same time in a parallel mixture (=control mixture in one of the channels of the two-channel aggregometer) as each test mixture (second channel) and is used as a 100% value.
The aggregation value attained under the effect of the test substance is given as a percentage of the control value, i.e. less than 100% in the case of an inhibition of aggregation and over 100% in the case of an increase.
Each test substance is investigated at concentrations of from 10^-3 to 10^-8 M with a random sampling of n=4 with regard to an inhibitory effect on the PAF-induced thrombocyte aggregation. Then a concentration-activity curve is drawn up using 3 concentrations and the IC50 is determined (concentration giving a 50% inhibition of aggregation).
The IC50 is the concentration that inhibits the measured activity by half. Regarding `Cc1nnc2n1-c1ccccc1C(c1ccccc1)=NC2`, the IC50 is 16 µM.

As to `Cc1nnc2n1-c1ccccc1C(c1ccccc1Cl)=NC2` [compound 2], the IC50 came out at 8.6 µM.

`Cc1nnc2n1-c1ccc(Cl)cc1C(c1ccccc1)=NC2` [compound 3, Alprazolam, reference compound]: the IC50 amounted to 14 µM.

Turning to `Cc1nnc2n1-c1ccc(Cl)cc1C(c1ccccc1Cl)=NC2` [compound 4, Triazolam, reference compound], the IC50 came out at 9 µM.

Take `Cc1nnc2n1-c1cc(Cl)ccc1C(c1ccccc1Cl)=NC2` [compound 5]: the IC50 stood at 300 µM.

In the case of `Cc1ccc2c(c1)C(c1ccccc1Cl)=NCc1nnc(C)n1-2` [compound 6], the IC50 turned out to be 9.1 µM.

For the compound `Cc1nnc2n1-c1sccc1C(c1ccccc1Cl)=NC2` [compound 7], the IC50 was determined as 22 µM.

`CCc1cc2c(s1)-n1c(C)nnc1CN=C2c1ccccc1Cl` [compound 8]: the IC50 was < 5 µM.

On to `Cc1nnc2n1-c1sc(Cl)cc1C(c1ccccc1Cl)=NC2` [compound 9], for which the IC50 is < 2 µM.

Consider `Cc1nnc2n1-c1sc(Br)cc1C(c1ccccc1Cl)=NC2` [compound 10], for which the IC50 was found to be 0.5 µM.

With `CSCc1cc2c(s1)-n1c(C)nnc1CN=C2c1ccccc1Cl` [compound 11], the IC50 is < 5 µM.

In the case of `Cc1nnc2n1-c1sc([N+](=O)[O-])cc1C(c1ccccc1Cl)=NC2` [compound 12], the IC50 was 2.6 µM.

Turning to `Cc1csc2c1-n1c(C)nnc1CN=C2c1ccccc1` [compound 22], the IC50 is > 100 µM.

`Cc1nnc2n1-c1ccsc1C(c1ccccc1)=NC2` [compound 23]: the IC50 stood at 19.8 µM.

In the case of `Cc1nnc2n1-c1ccsc1C(c1ccccc1Cl)=NC2` [compound 24], the IC50 was found to be 7.6 µM.

As for `Cc1nc2c(s1)C(c1ccccc1)=NCc1nncn1-2` [compound 26], the IC50 was found to be 700 µM.

As to `CCn1nc(C)c2c1-n1c(C)nnc1CN=C2c1ccccc1Cl` [compound 27], the concentration for half-maximal inhibition (IC50) was found to be 270 µM.

With `Cc1nnc2n1-c1c(nnn1C)C(c1ccccc1Cl)=NC2` [compound 29], the IC50 is 950 µM.

As for `Cc1cnc2n1-c1sc(Br)cc1C(c1ccccc1Cl)=NC2` [compound 30], the IC50 was < 10 µM.

On to `Cc1ncc2n1-c1ccc(Cl)cc1C(c1ccccc1F)=NC2` [compound 31], for which the IC50 came out at 690 µM.

Turning to `COc1ccc2c(c1)C(c1ccccc1Cl)=NCc1nnc(C)n1-2` [compound 43], the IC50 stood at 33.3 µM.

On to `Cc1nnc2n1-c1sc3c(c1C(c1ccccc1Cl)=NC2)CCOC3` [compound 44], for which the 50% inhibitory concentration (IC50) is < 5 µM.

Consider `Cc1nnc2n1-c1sc3c(c1C(c1ccccc1Cl)=NC2)CCNC3` [compound 45], for which the IC50 was < 10 µM.

In the case of `Cc1nnc2n1-c1sc(C[S+](C)[O-])cc1C(c1ccccc1Cl)=NC2` (centres unmarked) [compound 46], the concentration for half-maximal inhibition (IC50) is < 10 µM.

On to `Cc1nnc2n1-c1sc(CS(C)(=O)=O)cc1C(c1ccccc1Cl)=NC2` [compound 47], for which the IC50 was < 10 µM.

As for `Cc1cc2c(cc1C)-n1c(C)cnc1CN=C2c1ccccc1Cl` [compound 48], the IC50 amounted to 528 µM.

In the case of `CCOC(=O)c1ncn2c1CN=C(c1ccccc1Cl)c1ccsc1-2` [compound 49], the IC50 was 210 µM.

On to `Clc1ccccc1C1=NCc2cncn2-c2sccc21` [compound 50], for which the IC50 was determined as 87 µM.

As for `CCOC(=O)c1ncn2c1CN=C(c1ccccc1Cl)c1cc(Br)sc1-2` [compound 52], the IC50 was 134 µM.

As to `Clc1ccccc1C1=NCc2cncn2-c2sc(Br)cc21` [compound 53], the IC50 amounted to 97.4 µM.

Regarding `Clc1ccc2c(c1)C(c1ccccc1Cl)=NCc1nncn1-2` [compound 54], the IC50 came to 115 µM.

As to `Clc1ccc2c(c1)C(c1ccccc1)=NCc1nnc(Br)n1-2` [compound 55], the IC50 worked out at 119 µM.

In the case of `COc1nnc2n1-c1ccc(Cl)cc1C(c1ccccc1Cl)=NC2` [compound 56], the IC50 is 20.6 µM.

As for `Clc1ccc2c(c1)C(c1ccccc1Cl)=NCc1nnc(Br)n1-2` [compound 57], the IC50 stood at 25 µM.

As for `Cc1nnc2n1-c1sc(C#N)cc1C(c1ccccc1Cl)=NC2` [compound 58], the IC50 was determined as 3.8 µM.

`CC(=CC(=O)O)c1cc2c(s1)-n1c(C)nnc1CN=C2c1ccccc1Cl` [compound 59]: the IC50 was > 50 µM.

Consider `CCOC(=O)c1ccn2c1CN=C(c1ccccc1Cl)c1cc(Cl)ccc1-2` [compound 60], for which the IC50 is 444 µM.

Consider `Clc1ccc2c(c1)C(c1ccccc1Cl)=NCc1cncn1-2` [compound 61], for which the IC50 was determined as 246 µM.

On to `Cc1nnc2n1-c1ccc([N+](=O)[O-])cc1C(c1ccccc1Cl)=NC2` [compound 62], for which the IC50 came to 10 µM.

With `Clc1ccc2c(c1)C(c1ccccc1Cl)=NCc1nnc(C3CC3)n1-2` [compound 63], the IC50 was 7 µM.

As to `Cc1nnc2n1-c1cccc(Cl)c1C(c1ccccc1Cl)=NC2` [compound 64], the IC50 was determined as 280 µM.

As to `Cc1cc2c(cc1C)-n1c(C)nnc1CN=C2c1ccccc1Cl` [compound 65], the IC50 was 217 µM.

Take `Cc1nnc2n1-c1sc(C(=O)O)cc1C(c1ccccc1Cl)=NC2` [compound 67]: the IC50 was > 100 µM.

Turning to `CC(=O)c1cc2c(s1)-n1c(C)nnc1CN=C2c1ccccc1Cl` [compound 68], the IC50 is < 10 µM.

On to `Fc1ccccc1C1=NCc2cncn2-c2ccc(Cl)cc21` [compound 69], for which the IC50 was 580 µM.

For `CCOC(=O)c1ncc2n1-c1ccc(Cl)cc1C(c1ccccc1F)=NC2` [compound 70], the IC50 was determined as 730 µM.

Consider `Cc1nnc2n1-c1c(Cl)cccc1C(c1ccccc1Cl)=NC2` [compound 71], for which the IC50 worked out at 300 µM.

In the case of `Cc1nnc2n1-c1cc(F)ccc1C(c1ccccc1Cl)=NC2` [compound 72], the IC50 was determined as 56 µM.

Regarding `Cc1ccc2c(c1)-n1c(C)nnc1CN=C2c1ccccc1Cl` [compound 73], the IC50 worked out at 243 µM.

On to `Cc1nnc2n1-c1ccc(C#N)cc1C(c1ccccc1Cl)=NC2` [compound 75], for which the IC50 was < 20 µM.

For `Cc1nnc2n1-c1sc(CC(=O)O)cc1C(c1ccccc1Cl)=NC2` [compound 76], the IC50 is > 100 µM.

For the compound `Cc1nnc2n1-c1sc(C(C)O)cc1C(c1ccccc1Cl)=NC2` (centres unmarked) [compound 77], the IC50 is < 10 µM.

Turning to `COC(=O)c1ccc2c(c1)C(c1ccccc1)=NCc1ncc(C)n1-2` [compound 78], the IC50 turned out to be 8 µM.

In the case of `CCOC(=O)c1ccc2c(c1)-n1c(C)nnc1CN=C2c1ccccc1` [compound 79], the IC50 was determined as 38 µM.

Turning to `CC(C)(O)c1ccc2c(c1)C(c1ccccc1)=NCc1nncn1-2` [compound 81], the IC50 stood at 103 µM.

`CC(=O)c1ccc2c(c1)C(c1ccccc1)=NCc1nnc(C)n1-2` [compound 82]: the IC50 was found to be 63 µM.

Take `CCOC(=O)C=C(C)c1cc2c(s1)-n1c(C)nnc1CN=C2c1ccccc1Cl` [compound 83]: the half-inhibitory concentration (IC50) is < 50 µM.

As for `Cc1nnc2n1-c1ccccc1C(c1ccccc1Cl)NC2` (centres unmarked) [compound 85], the IC50 worked out at 8.7 µM.

In the case of `Cc1nnc2n1-c1ccc(Cl)cc1C(c1ccccc1Cl)NC2` (centres unmarked) [compound 86], the IC50 was 8.3 µM.

With `Cc1nnc2n1-c1cc(Cl)ccc1C(c1ccccc1Cl)NC2` (centres unmarked) [compound 87], the IC50 was determined as 190 µM.

On to `Cc1nnc2n1-c1sc(Cl)cc1C(c1ccccc1Cl)NC2` (centres unmarked) [compound 88], for which the IC50 was < 5 µM.

As to `Cc1nnc2n1-c1sc(Br)cc1C(c1ccccc1Cl)NC2` (centres unmarked) [compound 89], the IC50 was < 10 µM.
